According to patent US8361998B2, “Compounds and their use as IKACh blockers” (AstraZeneca AB, priority 2010, dated 2013):
Like-named read-outs stand apart in the source and are kept apart here.

Target: T1, human cardiac ion channel proteins hKir3.1/Kir3.4 (Homo sapiens, UniProt P48544+P48549)
T1 construct: expressed in transfected cells
T1 sequence (P48549 1-501): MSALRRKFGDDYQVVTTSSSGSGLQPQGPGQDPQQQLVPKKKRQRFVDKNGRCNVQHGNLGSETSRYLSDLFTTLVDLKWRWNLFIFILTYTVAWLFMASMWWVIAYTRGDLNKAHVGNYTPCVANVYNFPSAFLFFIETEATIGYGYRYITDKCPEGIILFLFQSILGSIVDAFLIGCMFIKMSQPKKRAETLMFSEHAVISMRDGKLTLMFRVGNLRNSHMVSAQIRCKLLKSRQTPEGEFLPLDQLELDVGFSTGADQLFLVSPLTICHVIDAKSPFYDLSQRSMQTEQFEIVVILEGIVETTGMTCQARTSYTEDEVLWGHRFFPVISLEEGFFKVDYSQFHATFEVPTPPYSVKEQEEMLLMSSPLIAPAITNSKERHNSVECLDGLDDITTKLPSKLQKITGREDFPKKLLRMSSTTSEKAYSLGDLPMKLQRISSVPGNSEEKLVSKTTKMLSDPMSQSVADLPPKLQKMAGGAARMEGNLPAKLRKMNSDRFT
T1 sequence (P48544 1-419): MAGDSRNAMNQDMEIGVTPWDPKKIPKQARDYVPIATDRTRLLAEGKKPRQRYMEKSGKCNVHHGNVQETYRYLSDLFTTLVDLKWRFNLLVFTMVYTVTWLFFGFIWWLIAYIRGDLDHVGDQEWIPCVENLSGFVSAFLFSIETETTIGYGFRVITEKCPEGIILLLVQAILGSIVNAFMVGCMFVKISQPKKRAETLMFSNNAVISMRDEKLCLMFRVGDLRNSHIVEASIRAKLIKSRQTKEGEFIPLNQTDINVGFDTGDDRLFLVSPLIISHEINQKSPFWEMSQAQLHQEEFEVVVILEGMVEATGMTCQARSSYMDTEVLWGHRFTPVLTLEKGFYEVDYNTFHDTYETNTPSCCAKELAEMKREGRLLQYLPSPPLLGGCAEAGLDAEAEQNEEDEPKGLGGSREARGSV
Experiment: Atomic Absorption Screening (AAS) Rb efflux assay of hKir3.1/Kir3.4 block, carbachol/high K+ stimulated, 10-pt or 7-pt CR
Assay type: cell-based
Settings: AAS Rb efflux, CHO-K1 cells expressing hKir3.1/Kir3.4
In short: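 Mean IC50s derive from >4 replicates over 0.003–67 μmol/L (10-point) or >3 replicates over 0.037–27 μmol/L (7-point), both threefold steps. Rb-loaded (3 h, 37° C) CHO-K1 cells stably expressing hKir3.1/Kir3.4 saw compound for 5 min at RT before 10-min channel opening by carbachol 10 μM/KCl 20 mM final. Released Rb was quantified by atomic absorption.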

[1] = 7-pt CR (0.037 to 27 μmol/L), mean of >3 replicates, read-out: IKACh IC50 7-pt CR, AAS
[2] = 10-pt CR (0.003 to 67 μmol/L), mean of >4 replicates, read-out: IKACh IC50 10-pt CR, AAS

| Structure (SMILES) | IC50 [1] | IC50 [2] |
| --- | --- | --- |
| Cc1c(F)cccc1C(=O)N(C)[C@H](CN1CCCC1)C(C)C [Example 16.13, (S)-3-Fluoro-N,2-dimethyl-N-(3-methyl-1-(pyrrolidin-1-yl)butan-2-yl)benzamide] | 5.3 µM | 14 µM |
| Cc1ccc(C(=O)N(C)[C@H](CN2CCCC2)C(C)C)cc1 [Example 16.14, (S)—N,4-Dimethyl-N-(3-methyl-1-(pyrrolidin-1-yl)butan-2-yl)benzamide] | 6.7 µM |  |
| CC(C)[C@@H](CN1CCCC1)N(C)C(=O)c1ccc(OC(F)(F)F)cc1 [Example 16.15, (S)—N-Methyl-N-(3-methyl-1-(pyrrolidin-1-yl)butan-2-yl)-4-(tri-fluoromethoxy)benzamide] | 2.5 µM |  |
| CC(C)[C@@H](CN1CCCC1)N(C)C(=O)c1cccc(OC(F)(F)F)c1 [Example 16.16, (S)—N-Methyl-N-(3-methyl-1-(pyrrolidin-1-yl)butan-2-yl)-3-(tri-fluoromethoxy)benzamide] | 2.6 µM |  |
| CC(C)[C@@H](CN1CCCC1)N(C)C(=O)c1cccc(Cl)c1F [Example 16.17, (S)-3-Chloro-2-fluoro-N-methyl-N-(3-methyl-1-(pyrrolidin-1-yl)butan-2-yl)benzamide] | 1.2 µM |  |
| CC(C)[C@@H](CN1CCCC1)N(C)C(=O)c1ccccc1C(F)(F)F [Example 16.20, (S)—N-Methyl-N-(3-methyl-1-(pyrrolidin-1-yl)butan-2-yl)-2-(trifluoromethyl)benzamide] | 14 µM |  |
| CC(C)[C@@H](CN1CCCCC1)N(C)C(=O)c1ccc(Cl)c(Cl)c1 [Example 16.28, 3,4-Dichloro-N-methyl-N-[(1S)-2-methyl-1-(piperidin-1-ylmethyl)propyl]benzamide] | 0.84 µM |  |
| Cc1cccc(C(=O)N(C)[C@H](CN2CCCCC2)C(C)C)c1 [Example 16.29, N,3-Dimethyl-N-[(1S)-2-methyl-1-(piperidin-1-ylmethyl)propyl]benzamide] | 8.8 µM | 9.3 µM |
| CC(C)[C@@H](CN1CCCCC1)N(C)C(=O)c1ccc(Cl)cc1Cl [Example 16.30, 2,4-Dichloro-N-methyl-N-[(1S)-2-methyl-1-(piperidin-1-ylmethyl)propyl]benzamide] | 1.7 µM |  |
| CC(C)[C@@H](CN1CCCCC1)N(C)C(=O)c1ccc(Cl)cc1F [Example 16.31, 4-Chloro-2-fluoro-N-methyl-N-[(1S)-2-methyl-1-(piperidin-1-ylmethyl)propyl]-benzamide] | 2.4 µM |  |
| CC(C)[C@@H](CN1CCCCC1)N(C)C(=O)c1ccc(Cl)cc1 [Example 16.34, 4-Chloro-N-methyl-N-[(1S)-2-methyl-1-(piperidin-1-ylmethyl)propyl]benzamide] | 4.3 µM |  |
| CC(C)[C@@H](CN1CCCCC1)N(C)C(=O)c1cccc(Br)c1 [Example 16.35, (S)-3-Bromo-N-methyl-N-(3-methyl-1-(piperidin-1-yl)butan-2-yl)benzamide] | 12 µM |  |
| CC(C)[C@@H](CN1CC[C@H](O)C1)N(C)C(=O)c1cccc(Cl)c1F [Example 16.39, 3-Chloro-2-fluoro-N-[(1S)-1-{[(3S)-3-hydroxypyrrolidin-1-yl]methyl}-2-methylpropyl]-N-methylbenzamide] | 3.9 µM |  |
| CC(C)[C@@H](CN1CC[C@H](O)C1)N(C)C(=O)c1ccc(OC(F)(F)F)cc1 [Example 16.41, N-[(1S)-1-{[(3S)-3-Hydroxypyrrolidin-1-yl]methyl}-2-methylpropyl]-N-methyl-4-(trifluoromethoxy)benzamide] | 6.8 µM |  |
| CC(C)[C@@H](CN1CC[C@H](O)C1)N(C)C(=O)c1cccc(OC(F)(F)F)c1 [Example 16.42, N-[(1S)-1-{[(3S)-3-Hydroxypyrrolidin-1-yl]methyl}-2-methylpropyl]-N-methyl-3-(tri-fluoromethoxy)benzamide] | 3.9 µM |  |
| CC(C)[C@@H](CN1CC[C@H](O)C1)N(C)C(=O)c1cc(F)cc(C(F)(F)F)c1 [Example 16.44, 3-Fluoro-N-[(1S)-1-{[(3S)-3-hydroxypyrrolidin-1-yl]methyl}-2-methylpropyl]-N-methyl-5-(trifluoromethyl)benzamide] | 8.4 µM |  |

Further lines, results first:

| IC50 [1] | IC50 [2] | Structure (SMILES) |
| --- | --- | --- |
| 23 µM | 15 µM | CC(C)[C@@H](CN1CCCC1)N(C)C(=O)c1cc(F)cc(F)c1 [Example 16.12, (S)-3,5-Difluoro-N-methyl-N-(3-methyl-1-(pyrrolidin-1-yl)butan-2-yl)benzamide] |
| 11 µM |  | CC(C)[C@@H](CN1CCCC1)N(C)C(=O)c1ccccc1F [Example 16.18, (S)-2-Fluoro-N-methyl-N-(3-methyl-1-(pyrrolidin-1-yl)butan-2-yl)benzamide] |
| 14 µM |  | CC(C)[C@@H](CN1CCCC1)N(C)C(=O)c1c(F)cccc1C(F)(F)F [Example 16.19, (S)-2-Fluoro-N-methyl-N-(3-methyl-1-(pyrrolidin-1-yl)butan-2-yl)-6-(trifluoromethyl)benzamide] |
| 12 µM |  | CC(C)[C@@H](CN1CCCC1)N(C)C(=O)c1cc(F)c(F)c(F)c1 [Example 16.21, (S)-3,4,5-Trifluoro-N-methyl-N-(3-methyl-1-(pyrrolidin-1-yl)butan-2-yl)benzamide] |
| 18 µM |  | CC(C)[C@@H](CN1CCCC1)N(C)C(=O)c1cc(F)ccc1F [Example 16.22, (S)-2,5-Difluoro-N-methyl-N-(3-methyl-1-(pyrrolidin-1-yl)butan-2-yl)benzamide] |
| 6.7 µM |  | CC(C)[C@@H](CN1CCCC1)N(C)C(=O)c1ccc(F)cc1C(F)(F)F [Example 16.23, (S)-4-Fluoro-N-methyl-N-(3-methyl-1-(pyrrolidin-1-yl)butan-2-yl)-2-(trifluoromethyl)benzamide] |
| > 27 µM | 9.8 µM | CC(C)[C@@H](CN1CCCC1)N(C)C(=O)c1c(F)cccc1F [Example 16.24, 2,6-Difluoro-N-methyl-N-[(1S)-2-methyl-1-(pyrrolidin-1-ylmethyl)propyl]benzamide] |
| 2.8 µM |  | Cc1cc(C(=O)N(C)[C@H](CN2CCCCC2)C(C)C)ccc1Cl [Example 16.25, 4-Chloro-N,3-dimethyl-N-[(1S)-2-methyl-1-(piperidin-1-ylmethyl)propyl]benzamide] |
| 4.8 µM |  | CC(C)[C@@H](CN1CCCCC1)N(C)C(=O)c1ccc(F)cc1Cl [Example 16.26, 2-Chloro-4-fluoro-N-methyl-N-[(1S)-2-methyl-1-(piperidin-1-yl-methyl)propyl]benzamide] |
| 4 µM |  | CC(C)[C@@H](CN1CCCCC1)N(C)C(=O)c1ccc(Br)cc1 [Example 16.27, 4-Bromo-N-methyl-N-[(1S)-2-methyl-1-(piperidin-1-ylmethyl)propyl]benzamide] |
| 4 µM |  | CC(C)[C@@H](CN1CCCCC1)N(C)C(=O)c1cccc(C(F)(F)F)c1 [Example 16.32, N-Methyl-N-[(1S)-2-methyl-1-(piperidin-1-ylmethyl)propyl]-3-(trifluoromethyl)-benzamide] |
| 6.7 µM |  | CC(C)[C@@H](CN1CCCCC1)N(C)C(=O)c1ccc(F)c(Cl)c1 [Example 16.33, 3-Chloro-4-fluoro-N-methyl-N-[(1S)-2-methyl-1-(piperidin-1-ylmethyl)propyl]-benzamide] |
| 11 µM |  | CC(C)[C@@H](CN1CCCCC1)N(C)C(=O)c1ccc(Br)c(F)c1 [Example 16.36, (S)-4-Bromo-3-fluoro-N-methyl-N-(3-methyl-1-(piperidin-1-yl)butan-2-yl)benzamide] |
| 14 µM | 15 µM | CC(C)[C@@H](CN1CCCCC1)N(C)C(=O)c1cccc(Cl)c1 [Example 16.37, (S)-3-Chloro-N-methyl-N-(3-methyl-1-(piperidin-1-yl)butan-2-yl)benzamide] |
| 17 µM |  | Cc1c(F)cccc1C(=O)N(C)[C@H](CN1CCCCC1)C(C)C [Example 16.38, (S)-3-Fluoro-N,2-dimethyl-N-(3-methyl-1-(piperidin-1-yl)butan-2-yl)benzamide] |
| 3.2 µM |  | Cc1cc(C(=O)N(C)[C@H](CN2CC[C@H](O)C2)C(C)C)ccc1F [Example 16.40, 4-Fluoro-N-[(1S)-1-{[(3S)-3-hydroxypyrrolidin-1-yl]methyl}-2-methylpropyl]-N,3-dimethylbenzamide] |
| 5.5 µM |  | Cc1ccc(C(=O)N(C)[C@H](CN2CC[C@H](O)C2)C(C)C)cc1 [Example 16.43, N-[(1S)-1-{[(3S)-3-Hydroxypyrrolidin-1-yl]methyl}-2-methylpropyl]-N,4-dimethylbenzamide] |
